According to US6846802B2, “Macrocyclic NS3-serine protease inhibitors of hepatitis C virus comprising N-cyclic P2 moieties” (priority 2000, dated 2005):
Starred links: 1 amine or outer side, 2 acyl side, 3 side chain; linkers in the order of their positions; H or OH if unused. Positions of bridges follow the written chain, without caps; N, C: chain ends. Non-standard residues stand in square brackets, D forms with d. Residues, ends and D or L forms follow the SMILES beside them. Tic(7-O(CH2)6CO) = O=C([C@@H]1Cc2ccc(OCCCCCCC(=O)[*:3])cc2CN1[*:1])[*:2]; X1 = CCC[C@H](N[*:1])C(=O)C(=O)[*:2]; Chg = N[C@H](C(=O)O)C1CCCCC1; Phg = N[C@H](C(=O)O)c1ccccc1

Molecular target: HCV serine protease (subtype 1b, 1bNS4A21-32GS-GS NS3-81 I17K) in HeLa/Huh7 cells (Hepatitis C virus genotype 1b, UniProt P26663, I1043K)
Assay type: cell-based

First: CCCC(NC(=O)[C@@H]1C[C@@H]2CN1C(=O)[C@H](C1CCCCC1)NC(=O)Cc1cccc(c1)OCCCCO2)C(=O)C(=O)NCC(=O)N[C@H](C(=O)OC(C)(C)C)c1ccccc1 (mixture of isomers) [Compound 5]
Second: CCCC(NC(=O)[C@@H]1C[C@@H]2CN1C(=O)[C@H](C1CCCCC1)NC(=O)Cc1cccc(c1)OCCCO2)C(=O)C(=O)NCC(=O)N[C@H](C(=O)OC(C)(C)C)c1ccccc1 (stereo partly shown) [Compound 2]
The “Cell-Based Assay” value of the first is 3.3-fold lower: 0.6 µM for the first, 2 µM for the second.

Compared with CCCC(NC(=O)[C@@H]1C[C@@H]2CN1C(=O)[C@H](C1CCCCC1)NC(=O)Cc1cccc(c1)OCCO2)C(=O)C(=O)NCC(=O)N[C@H](C(=O)OC(C)(C)C)c1ccccc1 (mixture of isomers) [Compound 8], CCCC(NC(=O)[C@@H]1C[C@@H]2CN1C(=O)[C@H](C1CCCCC1)NC(=O)CCc1cccc(c1)OCCO2)C(=O)C(=O)NCC(=O)N[C@H](C(=O)OC(C)(C)C)c1ccccc1 (stereo partly shown) [Compound 21] is 1.8-fold lower in “Cell-Based Assay” value: 3.5 µM for the first, 2 µM for the second.

CCCC(NC(=O)[C@@H]1Cc2ccc3cc2CN1C(=O)[C@H](C1CCCCC1)NC(=O)CCCCCCO3)C(=O)C(=O)NCC(=O)N[C@H](C(=O)OC(C)(C)C)c1ccccc1 (mixture of isomers) [Compound 58] and CCC[C@H](NC(=O)[C@@H]1Cc2ccc3cc2CN1C(=O)[C@H](C1CCCCC1)NC(=O)CCCCCCO3)C(=O)C(=O)NCC(=O)N[C@H](C(=O)N(C)C)c1ccccc1 [Compound 57B] ([Chg][Tic(7-O(CH2)6CO)][X1]G[Phg]-NMe2; lactam N-2) are within 1.5-fold of each other in “Cell-Based Assay” value: 2 µM for the first, 1.5 µM for the second.

CCC[C@@H](NC(=O)[C@@H]1C[C@@H]2CN1C(=O)[C@H](C1CCCCC1)NC(=O)Cc1cccc(c1)OCCCCO2)C(=O)C(=O)NCC(=O)N[C@H](C(=O)N(C)C)c1ccccc1 [Compound 4A] and CCC[C@H](NC(=O)[C@@H]1C[C@@H]2CN1C(=O)[C@H](C1CCCCC1)NC(=O)Cc1cccc(c1)OCCCCO2)C(=O)C(=O)NCC(=O)N[C@H](C(=O)N(C)C)c1ccccc1 [Compound 4B] are within 1.5-fold of each other in “Cell-Based Assay” value: 2.5 µM for the first, 1.8 µM for the second.

Going from CCC[C@H](NC(=O)[C@@H]1C[C@@H]2CN1C(=O)[C@H](C(C)(C)C)NC(=O)Cc1cccc(c1)OCCCO2)C(=O)C(=O)NCC(=O)N[C@H](C(=O)N(C)C)c1ccccc1 [Compound 12B] to CCCC(NC(=O)[C@@H]1C[C@@H]2CN1C(=O)[C@H](C1CCCCC1)NC(=O)Cc1cccc(c1)OCCCO2)C(=O)C(=O)NCC(=O)OCc1ccccc1 (stereo partly shown) [Compound 23], the “Cell-Based Assay” value falls from 5.2 µM to 3 µM (1.7-fold).
